These results are taken from US20120316137A1, “Methods and Compositions for Treating Cancer” (priority 2009, published 2012).

Experiment [1] deals with FLT3, KIT, FGFR1 and PDGFRα in leukemic cell lines (panel). The note with it: read-out: IC50 for inhibition of phosphorylation of all 4 RTKs; range over the 4 cell lines.
Experiment [2] has as its system AN3CA endometrial cancer cell line. Briefly: Combination cell growth assay (Chou and Talalay). The format is cell-based. The note with it: Homo sapiens, AN3-CA, read-out: 1×EC50 concentration.
Experiment [3] has as its system FGFR3 signaling in MGH-U3 bladder cells (Y375C). Briefly: Signaling (Western immunoblotting), Table 12. The note with it: read-out: Signaling IC50 (nM).
For experiment [4], the system named is Phospho-FRS2a in MFE-296 cells. Briefly: Western immunoblotting. The note with it: Homo sapiens, MFE-296, read-out: Phospho-FRS2a IC50 (nM).
For experiment [5], the system named is Phospho-FRS2a in Hec1B cells. Briefly: Western immunoblotting. The note with it: Homo sapiens, HEC-1B, read-out: Phospho-FRS2a IC50 (nM).
Experiment [6] relates to Phospho-Erk1/2 in KatoIII cells. Briefly: Western immunoblotting. The note with it: Homo sapiens, KATO III, read-out: Phospho-Erk1/2 IC50 (nM).
Experiment [7] relates to Ba/F3 cells expressing BCR-ABL^T315I. Briefly: Ba/F3 subcutaneous tumor model.

As to `Cc1ccc(C(=O)Nc2ccc(CN3CCN(C)CC3)c(C(F)(F)F)c2)cc1C#Cc1cnc2cccnn12` [Compound 1, 3-(imidazo[1,2-b]pyridazin-3-ylethynyl)-4-methyl-N-(4-((4-methylpiperazin-1-yl)-methyl)-3-(trifluoromethyl)phenyl)benzamide], the IC50 in experiment [1] is […]; in experiment [3] it was 40 nM; in experiment [4] it was 2.7 nM; in experiment [5] it was greater than 1000 nM; in experiment [6], 8 nM. In addition, in experiment [2], the EC50 is 30 nM. For the same molecule, the “% T/C” value worked out at 68% in experiment [7] (10 mg/kg daily oral), 20% in experiment [7] (30 mg/kg daily oral) and 0.9% in experiment [7] (50 mg/kg daily oral). The “reduction in mean tumor volume at final measurement compared to start of treatment” value in experiment [7] (50 mg/kg daily oral) worked out at 96%. In addition, the “levels of phosphorylated BCR-ABL and phosphorylated CrkL in tumors” value in experiment [7] (single oral dose 30 mg/kg, 6 hr) was “markedly decreased levels of phosphorylated BCR-ABL and phosphorylated CrkL”.
